# Where “and” joins values, the source holds several entries; their conditions need not be identical. Identical values can stand only once.
# Key:
# [1] = Effect of Resveratrol on Body Weight of Female A/J Mice (diet, 6-week treatment); assay type: in vivo
# From the text: (§1) This experimental work assesses the bioavailability of resveratrol when administered orally to Female Mice Strain A, establishes the relationship betveen oral administration of resveratrol and the plasma concentration of the female mice, assesses the method of analysis for mouse plasma and establishes the detection limit of resveratrol in animal plasma. The mice were received from the Biological Testing Branch, National Cancer Institute, at 4-6 weeks of age, each having a body weight of approximately 16 g.
# (§2) After a quarantine period of one week, seven (7) groups each consisting of 10 mice were given resveratrol mixed with Teklad 4% Mouse/Rat chow ad libitum for a 6-week treatment period. As indicated in the table which follows, the concentration of resveratrol ranged from 125 mg/kg of diet to 3000 mg/kg of diet, with one group, as the control group, receiving only the mouse chow.
# (§3) Parameters monitored during the course of the study included sided-cage observations twice daily and body weight. Blood samples were taken at the end of the treatment period of 6 weeks and kept frozen at -20° C.±5 until the time of analysis. All animals were sacrificed by asphyxiation.
# [2] = antipromotion activity; cited from earlier work
# [3] = test system: phase II drug-metabolizing enzymes; settings: anti-initiation activity; cited from earlier work
# hydroperoxidase = settings: antipromotion activity; cited from earlier work
# [4] = test system: human promyelocytic leukemia cell; settings: cited from earlier work
# [5] = anti-initiation activity; cited from earlier work
# [6] = anti-initiation activity; cited from earlier work; remark: listed apart in the source
# [7] = Clinical signs, cage observations twice daily in mice fed resveratrol; assay type: in vivo, mouse (Female Mice Strain A); settings: any dose groups tested, 125-3000 mg/kg diet, 6 weeks
# From the text: as §1, §2, §3
smiles,measurement,setting,value
"Oc1ccc(C=Cc2cc(O)cc(O)c2)cc1 [resveratrol, 3,5,4'-trihydroxy stilbene]",mean body weight,"[1]; 1000 ppm, day 42, N=10",19.6 Grams
same,mean body weight,"[1]; 2000 ppm, day 5, N=10",16.3 Grams
same,individual body weight,"[1]; 2000 ppm, day 5, animals 51-60",17.8 Grams and 15.7 Grams and 16.1 Grams and 17.0 Grams and 13.7 Grams
same,mean body weight,"[1]; 2000 ppm, day 8, N=10",16.6 Grams
same,individual body weight,"[1]; 2000 ppm, day 8, animals 51-60",19.1 Grams and 15.8 Grams and 14.8 Grams and 16.5 Grams and 13.6 Grams
same,mean body weight,"[1]; 2000 ppm, day 12, N=10",17.7 Grams
same,individual body weight,"[1]; 2000 ppm, day 12, animals 51-60",19.5 Grams and 16.9 Grams and 17.0 Grams and 19.2 Grams and 18.1 Grams and 15.3 Grams
same,mean body weight,"[1]; 2000 ppm, day 15, N=10",17.7 Grams
same,individual body weight,"[1]; 2000 ppm, day 15, animals 51-60",19.6 Grams and 16.9 Grams and 16.7 Grams and 19.0 Grams and 17.7 Grams and 14.5 Grams
same,mean body weight,"[1]; 2000 ppm, day 19, N=10",18.8 Grams
same,individual body weight,"[1]; 2000 ppm, day 19, animals 51-60",20.1 Grams and 18.4 Grams and 19.5 Grams and 15.7 Grams
same,mean body weight,"[1]; 2000 ppm, day 22, N=10",19.1 Grams
same,individual body weight,"[1]; 2000 ppm, day 22, animals 51-60",20.3 Grams and 18.8 Grams and 18.4 Grams and 20.9 Grams and 20.0 Grams and 16.3 Grams
same,mean body weight,"[1]; 2000 ppm, day 26, N=10",19.2 Grams
same,individual body weight,"[1]; 2000 ppm, day 26, animals 51-60",20.2 Grams and 19.0 Grams and 18.7 Grams and 20.7 Grams and 19.9 Grams and 16.0 Grams
same,mean body weight,"[1]; 2000 ppm, day 29, N=10",19.5 Grams
same,individual body weight,"[1]; 2000 ppm, day 29, animals 51-60",20.7 Grams and 19.5 Grams and 18.8 Grams and 21.4 Grams and 20.0 Grams and 16.1 Grams
same,mean body weight,"[1]; 2000 ppm, day 33, N=10",19.8 Grams
same,individual body weight,"[1]; 2000 ppm, day 33, animals 51-60",21.0 Grams and 19.8 Grams and 19.5 Grams and 21.2 Grams and 20.7 Grams and 16.6 Grams
same,mean body weight,"[1]; 2000 ppm, day 36, N=10",19.6 Grams
same,individual body weight,"[1]; 2000 ppm, day 36, animals 51-60",21.3 Grams and 18.4 Grams and 18.5 Grams and 20.4 Grams and 20.0 Grams and 16.7 Grams
same,mean body weight,"[1]; 2000 ppm, day 40, N=10",19.7 Grams
same,individual body weight,"[1]; 2000 ppm, day 40, animals 51-60",20.3 Grams and 19.9 Grams and 18.9 Grams and 21.0 Grams and 20.9 Grams and 17.2 Grams
same,mean body weight,"[1]; 2000 ppm, day 42, N=10",20.3 Grams
same,individual body weight,"[1]; 2000 ppm, day 42, animals 51-60",19.5 Grams and 21.7 Grams and 19.2 Grams and 21.9 Grams and 21.3 Grams and 18.0 Grams
same,mean body weight,"[1]; group 7, 300 (ppm), day 5, N=10",16.3 Grams
same,individual body weight,"[1]; group 7, 300 (ppm), day 5, animals 61-70",16.0 Grams and 14.9 Grams and 15.2 Grams
same,mean body weight,"[1]; group 7, 300 (ppm), day 8, N=10",17.1 Grams
same,individual body weight,"[1]; group 7, 300 (ppm), day 8, animals 61-70",16.8 Grams and 16.4 Grams and 16.1 Grams
same,mean body weight,"[1]; group 7, 300 (ppm), day 12, N=10",17.6 Grams
same,individual body weight,"[1]; group 7, 300 (ppm), day 12, animals 61-70",17.6 Grams and 17.5 Grams and 17.4 Grams
same,mean body weight,"[1]; group 7, 300 (ppm), day 15, N=10",17.1 Grams
same,individual body weight,"[1]; group 7, 300 (ppm), day 15, animals 61-70",16.9 Grams and 17.2 Grams
same,mean body weight,"[1]; group 7, 300 (ppm), day 19, N=10",18.7 Grams
same,individual body weight,"[1]; group 7, 300 (ppm), day 19, animals 61-70",18.8 Grams and 18.2 Grams
same,mean body weight,"[1]; group 7, 300 (ppm), day 22, N=10",19.1 Grams
same,individual body weight,"[1]; group 7, 300 (ppm), day 22, animals 61-70",18.5 Grams and 18.6 Grams
same,mean body weight,"[1]; group 7, 300 (ppm), day 26, N=10",19.1 Grams
same,individual body weight,"[1]; group 7, 300 (ppm), day 26, animals 61-70",18.6 Grams and 18.5 Grams
same,mean body weight,"[1]; group 7, 300 (ppm), day 29, N=10",18.9 Grams
same,individual body weight,"[1]; group 7, 300 (ppm), day 29, animals 61-70",18.8 Grams and 18.3 Grams
same,mean body weight,"[1]; group 7, 300 (ppm), day 33, N=10",19.5 Grams
same,individual body weight,"[1]; group 7, 300 (ppm), day 33, animals 61-70",18.7 Grams and 18.8 Grams
same,mean body weight,"[1]; group 7, 300 (ppm), day 36, N=10",19.9 Grams
same,individual body weight,"[1]; group 7, 300 (ppm), day 36, animals 61-70",19.4 Grams and 18.6 Grams
same,mean body weight,"[1]; group 7, 300 (ppm), day 40, N=10",19.6 Grams
same,individual body weight,"[1]; group 7, 300 (ppm), day 40, animals 61-70",19.3 Grams and 19.1 Grams
same,mean body weight,"[1]; group 7, 300 (ppm), day 42, N=10",20.1 Grams
same,individual body weight,"[1]; group 7, 300 (ppm), day 42, animals 61-70",19.1 Grams and 19.5 Grams
same,anti-inflammatory effects,[2],mediated anti-inflammatory effects
same,induction of phase II drug-metabolizing enzymes,[3],induced phase II drug-metabolizing enzymes
same,inhibition of hydroperoxidase,hydroperoxidase,inhibited cyclooxygenase and hydroperoxidase
same,human promyelocytic leukemia cell differentiation,[4],induced human promyelocytic leukemia cell differentiation
same,antioxidant activity,[5],acted as an antioxidant
same,antimutagen activity,[6],antimutagen
same,compound-related clinical signs,[7],no compound-related clinical signs

# Reference: patent publication US6022901A, “Administration of resveratrol to prevent or treat restenosis following coronary intervention” (priority 1998, dated 2000)
